# pIC50: −log10 of the molar value.
# Tested on: 947758-054-R-J2-PDC spheroid growth, percent test/control
# Test: Anticancer human tumor 947758-054-R-J2-PDC patient-derived colon adenocarcinoma cell line growth inhibition [CLK]
# Conditions: spheroids with HUVEC and MSC; for pIC50: curve of first compound; for viability, T/C: stronger effect = lower value
# Outline: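 Patient-derived tumor cells grown as complex spheroids with HUVEC endothelial cells and mesenchymal stem cells, treated with drug combinations. Concentrations descend in half-log steps from near clinical Cmax, or from 10 microM if Cmax unknown.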
# [1] = second compound 0.0316 µM, first compound 0.0316 µM
# [2] = second compound 0.0316 µM, first compound 0.1 µM
# [3] = second compound 0.0316 µM, first compound 0.316 µM
# [4] = second compound 0.0316 µM, first compound 1 µM
# [5] = second compound 0.0316 µM, first compound 3.16 µM
# [6] = second compound 0.0316 µM, first compound 10 µM
# [7] = second compound 0.1 µM, first compound 0.0316 µM
# [8] = second compound 0.1 µM, first compound 0.1 µM
# [9] = second compound 0.1 µM, first compound 0.316 µM
# [10] = second compound 0.1 µM, first compound 1 µM
# [11] = second compound 0.1 µM, first compound 3.16 µM
# [12] = second compound 0.1 µM, first compound 10 µM
# [13] = second compound 0.316 µM, first compound 0.0316 µM
# [14] = second compound 0.316 µM, first compound 0.1 µM
# [15] = second compound 0.316 µM, first compound 0.316 µM
# [16] = second compound 0.316 µM, first compound 1 µM
# [17] = second compound 0.316 µM, first compound 3.16 µM
# [18] = second compound 0.316 µM, first compound 10 µM
# [19] = second compound 1 µM, first compound 0.0316 µM
# [20] = second compound 1 µM, first compound 0.1 µM
# [21] = second compound 1 µM, first compound 0.316 µM
# [22] = second compound 1 µM, first compound 1 µM
# [23] = second compound 1 µM, first compound 3.16 µM
# [24] = second compound 1 µM, first compound 10 µM
# [25] = second compound 3.16 µM, first compound 0.0316 µM
# [26] = second compound 3.16 µM, first compound 0.1 µM
# [27] = second compound 3.16 µM, first compound 0.316 µM
# [28] = second compound 3.16 µM, first compound 1 µM
# [29] = second compound 3.16 µM, first compound 3.16 µM
# [30] = second compound 3.16 µM, first compound 10 µM
# [31] = second compound 10 µM, first compound 0.0316 µM
# [32] = second compound 10 µM, first compound 0.1 µM
# [33] = second compound 10 µM, first compound 0.316 µM
# [34] = second compound 10 µM, first compound 1 µM
# [35] = second compound 10 µM, first compound 3.16 µM
# [36] = second compound 10 µM, first compound 10 µM
# 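Further: spheroids exposed to compounds for one week before readout.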
# 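Wherever viability, T/C is given: 100% = DMSO vehicle control wells.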
smiles,measurement,setting,value
CC(=O)O[C@H]1C(=O)[C@@]2(C)[C@H]([C@H](OC(=O)c3ccccc3)[C@]3(O)C[C@H](OC(=O)[C@H](O)[C@@H](NC(=O)c4ccccc4)c4ccccc4)C(C)=C1C3(C)C)[C@]1(OC(C)=O)CO[C@@H]1C[C@@H]2O + CNC(=O)c1ccc(Nc2nc(OC3CCCC3)c3c(-c4ccc5nc(C)oc5c4)c[nH]c3n2)c(OC)c1,pIC50,second compound 0.0316 µM,> 7.50
same,pIC50,second compound 0.1 µM,< 5.00
same,pIC50,second compound 0.316 µM,> 7.50
same,pIC50,second compound 1 µM,< 5.00
same,pIC50,second compound 3.16 µM,> 7.50
same,pIC50,second compound 10 µM,> 7.50
same,"viability, T/C",[1],27.7%
same,"viability, T/C",[2],34.4%
same,"viability, T/C",[3],31.7%
same,"viability, T/C",[4],35.2%
same,"viability, T/C",[5],40.6%
same,"viability, T/C",[6],47.7%
same,"viability, T/C",[7],61.2%
same,"viability, T/C",[8],59%
same,"viability, T/C",[9],65%
same,"viability, T/C",[10],79.8%
same,"viability, T/C",[11],79.1%
same,"viability, T/C",[12],90.5%
same,"viability, T/C",[13],47.7%
same,"viability, T/C",[14],65.1%
same,"viability, T/C",[15],74.4%
same,"viability, T/C",[16],85.6%
same,"viability, T/C",[17],88.3%
same,"viability, T/C",[18],87.4%
same,"viability, T/C",[19],41.1%
same,"viability, T/C",[20],83.5%
same,"viability, T/C",[21],59.1%
same,"viability, T/C",[22],61.9%
same,"viability, T/C",[23],82.8%
same,"viability, T/C",[24],57.6%
same,"viability, T/C",[25],36.9%
same,"viability, T/C",[26],43.8%
same,"viability, T/C",[27],70.2%
same,"viability, T/C",[28],70.8%
same,"viability, T/C",[29],67.9%
same,"viability, T/C",[30],56.8%
same,"viability, T/C",[31],35.2%
same,"viability, T/C",[32],42.1%
same,"viability, T/C",[33],56.7%
same,"viability, T/C",[34],53.9%
same,"viability, T/C",[35],56.8%
same,"viability, T/C",[36],61.3%
COc1cccc2c1C(=O)c1c(O)c3c(c(O)c1C2=O)CC(O)(C(=O)CO)CC3OC1CC(N)C(O)C(C)O1 (centres undefined) + CNC(=O)c1ccc(Nc2nc(OC3CCCC3)c3c(-c4ccc5nc(C)oc5c4)c[nH]c3n2)c(OC)c1,pIC50,second compound 0.0316 µM,7.17
same,pIC50,second compound 0.1 µM,7.37
same,pIC50,second compound 0.316 µM,> 7.50
same,pIC50,second compound 1 µM,> 7.50
same,pIC50,second compound 3.16 µM,> 7.50
same,pIC50,second compound 10 µM,> 7.50
same,"viability, T/C",[1],59%
same,"viability, T/C",[2],41.9%
same,"viability, T/C",[3],32.6%
same,"viability, T/C",[4],8.58%
same,"viability, T/C",[5],0.41%
same,"viability, T/C",[6],6.15%
same,"viability, T/C",[7],52.9%
same,"viability, T/C",[8],42.3%
same,"viability, T/C",[9],23.6%
same,"viability, T/C",[10],4.38%
same,"viability, T/C",[11],0.29%
same,"viability, T/C",[12],4.57%
same,"viability, T/C",[13],45.4%
same,"viability, T/C",[14],32.1%
same,"viability, T/C",[15],12.9%
same,"viability, T/C",[16],2.1%
same,"viability, T/C",[17],0.25%
same,"viability, T/C",[18],5.74%
same,"viability, T/C",[19],28.7%
same,"viability, T/C",[20],22.5%
same,"viability, T/C",[21],5.4%
same,"viability, T/C",[22],0.36%
same,"viability, T/C",[23],0.24%
same,"viability, T/C",[24],6.92%
same,"viability, T/C",[25],28.1%
same,"viability, T/C",[26],15.5%
same,"viability, T/C",[27],5.36%
same,"viability, T/C",[28],0.27%
same,"viability, T/C",[29],0.27%
same,"viability, T/C",[30],9.95%
same,"viability, T/C",[31],23.3%
same,"viability, T/C",[32],20.3%
same,"viability, T/C",[33],4.23%
same,"viability, T/C",[34],0.21%
same,"viability, T/C",[35],1%
same,"viability, T/C",[36],12.1%

# Reference: PubChem BioAssay AID2060605 (Molecular Pharmacology Branch, DTP, NCI, 2025)
